Columns and labels:
[1] = system: human peripheral blood mononuclear cells (PBMC); experiment: PBMC cytotoxicity assay (CellTiter-Glo); assay type: cell-based; conditions: 2 days, pCC50
Description: (§1) Compounds of the present invention were tested via high-throughput cellular assays utilizing detection of kynurenine via mass spectrometry and cytotoxicity as end-points. For the mass spectrometry and cytotoxicity assays, human peripheral blood mononuclear cells (PBMC) (PB003F; AllCells®, Alameda, Calif.) were stimulated with human interferon-γ (IFN-γ) (Sigma-Aldrich Corporation, St. Louis, Mo.) and lipopolysaccharide from Salmonella minnesota (LPS) (Invivogen, San Diego, Calif.) to induce the expression of indoleamine 2, 3-dioxygenase (IDO1). Compounds with IDO1 inhibitory properties decreased the amount of kynurenine produced by the cells via the tryptophan catabolic pathway. Cellular toxicity due to the effect of compound treatment was measured using CellTiter-Glo® reagent (CTG) (Promega Corporation, Madison, Wis.), which is based on luminescent detection of ATP, an indicator of metabolically active cells.
(§2) In preparation for the assays, test compounds were serially diluted 3-fold in DMSO from a typical top concentration of 1 mM or 5 mM and plated at 0.5 μL in 384-well, polystyrene, clear bottom, tissue culture treated plates with lids (Greiner Bio-One, Kremsmünster, Austria) to generate 11-point dose response curves. Low control wells (0% kynurenine or 100% cytotoxicity) contained either 0.5 μL of DMSO in the presence of unstimulated (−IFN-γ/−LPS) PBMCs for the mass spectrometry assay or 0.5 μL of DMSO in the absence of cells for the cytotoxicity assay, and high control wells (100% kynurenine or 0% cytotoxicity) contained 0.5 μL of DMSO in the presence of stimulated (+IFN-γ/+LPS) PBMCs for both the mass spectrometry and cytotoxicity assays.
(§3) Frozen stocks of PBMCs were washed and recovered in RPMI 1640 medium (Thermo Fisher Scientific, Inc., Waltham, Mass.) supplemented with 10% v/v heat-inactivated fetal bovine serum (FBS) (Thermo Fisher Scientific, Inc., Waltham, Mass.), and 1× penicillin-streptomycin antibiotic solution (Thermo Fisher Scientific, Inc., Waltham, Mass.). The cells were diluted to 1,000,000 cells/mL in the supplemented RPMI 1640 medium. 50 μL of either the cell suspension, for the mass spectrometry assay, or medium alone, for the cytotoxicity assay, were added to the low control wells, on the previously prepared 384-well compound plates, resulting in 50,000 cells/well or 0 cells/well respectively. IFN-γ and LPS were added to the remaining cell suspension at final concentrations of 100 ng/ml and 50 ng/ml respectively, and 50 μL of the stimulated cells were added to all remaining wells on the 384-well compound plates. The plates, with lids, were then placed in a 37° C., 5% CO2 humidified incubator for 2 days.
(§4) Following incubation, the 384-well plates were removed from the incubator and allowed to equilibrate to room temperature for 30 minutes. For the cytotoxicity assay, CellTiter-Glo® was prepared according to the manufacturer's instructions, and 40 μL were added to each plate well. After a twenty minute incubation at room temperature, luminescence was read on an EnVision® Multilabel Reader (PerkinElmer Inc., Waltham, Mass.). For the mass spectrometry assay, 10 μL of supernatant from each well of the compound-treated plates were added to 40 μL of acetonitrile, containing 10 μM of an internal standard for normalization, in 384-well, polypropylene, V-bottom plates (Greiner Bio-One, Kremsmünster, Austria) to extract the organic analytes. Following centrifugation at 2000 rpm for 10 minutes, 10 μL from each well of the acetonitrile extraction plates were added to 90 μL of sterile, distilled H2O in 384-well, polypropylene, V-bottom plates for analysis of kynurenine and the internal standard on the RapidFire 300 (Agilent Technologies, Santa Clara, Calif.) and 4000 QTRAP MS (SCIEX, Framingham, Mass.). MS data were integrated using Agilent Technologies' RapidFire Integrator software, and data were normalized for analysis as a ratio of kynurenine to the internal standard. […]

[2] = biological target: indoleamine 2, 3-dioxygenase (IDO1) (Homo sapiens, UniProt P14902); experiment: IDO1 PBMC RapidFire MS assay (kynurenine detection by mass spectrometry); assay type: cell-based; set-up: to induce the expression of indoleamine 2, 3-dioxygenase (IDO1); host or cells: human PBMC stimulated with IFN-gamma and LPS; conditions: human PBMC stimulated with IFN-γ and LPS, 2 days, pIC50, read-out: PBMC PXC50 (converted)
Sequence of indoleamine 2, 3-dioxygenase (IDO1) (P14902 whole entry): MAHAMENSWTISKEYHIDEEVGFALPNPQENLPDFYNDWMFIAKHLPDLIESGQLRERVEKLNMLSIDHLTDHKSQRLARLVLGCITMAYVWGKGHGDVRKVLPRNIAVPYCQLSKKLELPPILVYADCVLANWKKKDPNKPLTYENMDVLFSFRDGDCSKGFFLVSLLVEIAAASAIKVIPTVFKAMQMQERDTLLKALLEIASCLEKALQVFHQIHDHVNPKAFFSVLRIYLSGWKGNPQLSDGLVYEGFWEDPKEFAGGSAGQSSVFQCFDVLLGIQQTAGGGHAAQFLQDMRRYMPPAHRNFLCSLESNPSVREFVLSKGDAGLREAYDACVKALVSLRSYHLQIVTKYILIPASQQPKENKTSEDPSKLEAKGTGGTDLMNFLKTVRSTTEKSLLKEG
Description: IDO1 PBMC RapidFire MS Assay
as §1, §2, §3, §4

Row | Structure (SMILES) | PBMC TOX PXC50 [1] | IC50 [2]
1 | CC(C)CN(c1ccc(-c2ccccc2C(=O)O)cc1Nc1nc(C#N)ns1)C1CCCCC1 [Example 89, 3′-((3-cyano-1,2,4-thiadiazol-5-yl)amino)-4′-(cyclohexyl(isobutyl)amino)-[1,1′-biphenyl]-2-carboxylic Acid] | <5 | 3.98 nM
2 | CC(C)CN(c1ccc([C@H](C)CC(=O)O)cc1Nc1n[nH]c(C(F)(F)F)n1)[C@H]1CC[C@@H](Br)CC1 [Example 93, (R)-3-(4-(((cis)-4-bromocyclohexyl) (isobutyl)amino)-3-((5-(trifluoromethyl)-1H-1,2,4-triazol-3-yl)amino)phenyl)butanoic Acid] | <5 | 1.26 nM
3 | CNC(=O)c1nnc(Nc2cc([C@H](C)CC(=O)O)ccc2N(CC(C)C)C2CCOCC2)s1 [example 257, (3R)-3-(3-{[5-(methylcarbamoyl)-1,3,4-thiadiazol-2-yl]amino}-4-[(2-methylpropyl)(oxan-4-yl)amino]phenyl)butanoic acid] | <5 | 31.6 nM
4 | CO[C@H]1CC[C@H](N(CC(C)C)c2ccc([C@H](C)CC(=O)O)cc2Nc2n[nH]c(C(F)(F)F)n2)CC1 [Example 52] | <5 | 10 nM
5 | CC(C)CN(c1ccc([C@H](C)CC(=O)O)cc1Nc1ncc(C#N)cn1)C1CCOCC1 [example 254, (3R)-3-{3-[(5-cyanopyrimidin-2-yl)amino]-4-[(2-methylpropyl)(oxan-4-yl)amino]phenyl}butanoic acid] | <5 | 126 nM
6 | CO[C@H]1CC[C@@H](N(CC(C)C)c2ccc([C@H](C)CC(=O)O)cc2Nc2nc(C(F)(F)F)c[nH]2)CC1 [Example 62, (R)-3-(4-(isobutyl((cis)-4-methoxycyclohexyl)amino)-3-((4-(trifluoromethyl)-1H-imidazol-2-yl)amino)phenyl)butanoic Acid] | <5 | 3.98 nM
7 | CC(C)CN(c1ccc([C@H](C)Cc2nnn[nH]2)cc1Nc1nc(C(F)(F)F)ns1)C1CCOCC1 [Example 99, (R)-4-(1-(1H-tetrazol-5-yl)propan-2-yl)-N^1-isobutyl-N^1-(tetrahydro-2H-pyran-4-yl)-N^2-(3-(trifluoromethyl)-1,2,4-thiadiazol-5-yl)benzene-1,2-diamine] | <5 | 1.26 nM
8 | CC(C)CN(c1ccc([C@H](C)CC(=O)O)cc1N(c1cnc(C(=O)O)nc1)c1cnc(C(=O)O)nc1)C1CCOCC1 [example 265, 5-({5-[(2R)-1-carboxypropan-2-yl]-2-[(2-methylpropyl)(oxan-4-yl)amino]phenyl}(2-carboxypyrimidin-5-yl)amino)pyrimidine-2-carboxylic acid] | <5 | > 10000 nM
9 | COC(=O)c1c[nH]c(Nc2cc([C@H](C)CC(=O)O)ccc2N(CC(C)C)C2CCOCC2)n1 [Example 29, (R)-3-(4-(isobutyl(tetrahydro-2H-pyran-4-yl)amino)-3-((4-(methoxycarbonyl)-1H-imidazol-2-yl)amino)phenyl)butanoic acid] | <5 | 6.31 nM
10 | CC(C)CN(c1ccc([C@H](C)CC(=O)O)cc1Nc1ncc(C(F)(F)F)cn1)C1CCOCC1 [example 241, (3R)-3-{4-[(2-methylpropyl)(oxan-4-yl)amino]-3-{[5-(trifluoromethyl)pyrimi-din-2-yl]amino}phenyl}butanoic acid] | <5 | 79.4 nM
11 | CNC(=O)c1nc(Nc2cc([C@H](C)CC(=O)O)ccc2N(CC(C)C)[C@H]2CC[C@@H](OC)CC2)n[nH]1 (racemic) [example 246, (3RS)-3-(3-{[5-(methylcarbamoyl)-1H-1,2,4-triazol-3-yl]amino}-4-[(2-methylpropyl)[(1rs&,4rs&)-4-methoxycyclohexyl]ami-no]phenyl)butanoic acid] | <5 | 25.1 nM
12 | CC(C)CN(c1ccc(-c2ccccc2C(=O)O)cc1Nc1nc(C(F)(F)F)ns1)C1CC2(C1)CN(C(=O)OC(C)(C)C)C2 [Example 97, 4′-((2-(tert-butoxycarbonyl)-2-azaspiro[3.3]heptan-6-yl) (isobutyl)amino)-3′-((3-(trifluoromethyl)-1,2,4-thiadiazol-5-yl)amino)-[1,1′-biphenyl]-2-carboxylic Acid] | <5 | 6.31 nM
13 | CC(C)CN(c1ccc(C(C)N)cc1Nc1nc(C(F)(F)F)ns1)C1CCOCC1 (stereo not drawn) [example 234, 4-(1-aminoethyl)-N1-(2-methylpropyl)-N1-(oxan-4-yl)-N2-[3-(trifluoromethyl)-1,2,4-thiadiazol-5-yl]benzene-1,2-diamine] | <5 | 501 nM
14 | CNC(=O)c1n[nH]c(Nc2cc([C@H](C)CC(=O)O)ccc2N(CC(C)C)C2CCOCC2)n1 [example 237, (3R)-3-(3-{[3-(methylcarbamoyl)-1H-1,2,4-triazol-5-yl]amino}-4-[(2-methylpropyl)(oxan-4-yl)amino]phenyl)butanoic acid] | <5 | 200 nM
15 | CO[C@H]1CC[C@@H](N(CC(C)C)c2ccc([C@H](C)CC(=O)O)cc2Nc2ccc(Cl)cn2)CC1 [Example 47, (R)-3-(3-((5-chloropyridin-2-yl)amino)-4-(isobutyl((1s,4S)-4-methoxycyclohexyl)amino)phenyl)butanoic Acid] | <5 | 0.794 nM
16 | CC(C)CN(c1ccc([C@H](C)CC(=O)O)cc1Nc1nnc(C(N)=O)s1)C1CCOCC1 [example 261, (3R)-3-{3-[(5-carbamoyl-1,3,4-thiadiazol-2-yl)amino]-4-[(2-methylpropyl)(oxan-4-yl)amino]phenyl}butanoic acid] | <5 | 31.6 nM
17 | CC(C)CN(c1ccc(C(C)CC(=O)O)cc1Nc1nnc(C(=O)N(C)C)s1)C1CCCCC1 (stereo not drawn) [example 244, 3-{4-[cyclohexyl(2-methylpropyl)amino]-3-{[5-(dimethylcarbamoyl)-1,3,4-thiadiazol-2-yl]amino}phenyl}butanoic acid] | 5.7 | 50.1 nM
18 | CC(C)CN(CC(C)C)c1ccc([C@H](C)CC(=O)O)cc1Nc1n[nH]c(C(F)(F)F)n1 [Example 86, (R)-3-(4-(diisobutylamino)-3-((5-(trifluoromethyI)-1H-1,2,4-triazol-3-yl)amino)phenyl)butanoic Acid] | <5 | 3.98 nM
19 | CC(C)CN(c1ccc([C@H](C)CC(=O)O)cc1Nc1cnc(C(N)=O)nc1)C1CCOCC1 [example 263, (3R)-3-{3-[(2-carbamoylpyrimidin-5-yl)amino]-4-[(2-methylpropyl)(oxan-4-yl)amino]phenyl}butanoic acid] | <5 | 501 nM
20 | CO[C@H](C)CN(CC(C)C)c1ccc([C@H](C)CC(=O)O)cc1Nc1nc(C(F)(F)F)ns1 [Example 96, (R)-3-(4-(isobutyl((R)-2-methoxypropyl)amino)-3-((3-(trifluoromethyl)-1,2,4-thiadiazol-5-yl)amino)phenyl)butanoic Acid] | <5 | 10 nM
21 | CC(C)CN(c1ccc([C@H](C)CC(=O)O)cc1Nc1nc(C(=O)NC2CC2)c[nH]1)C1CCOCC1 [example 236, (3R)-3-(3-{[4-(cyclopropylcarbamoyl)-1H-imidazol-2-yl]amino}-4-[(2-methylpropyl)(oxan-4-yl)amino]phenyl)butanoic acid] | <5 | > 10000 nM

Source: patent US10899754B2, “Modulators of indoleamine 2,3-dioxygenase” (GLAXOSMITHKLINE INTELLECTUAL PROPERTY DEVELOPMENT LIMITED, priority 2016, dated 2021)
